PMC7470127, “Design, synthesis, and evaluation of 1, 4-benzodioxan-substituted chalcones as selective and reversible inhibitors of human monoamine oxidase B” (Journal of Enzyme Inhibition and Medicinal Chemistry, 2020)

What was measured:
hMAO-A = molecular target: T1, hMAO-A (Homo sapiens, UniProt P21397); experiment: hMAO inhibition assay (Amplex Red fluorescence), hMAO-A, p-tyramine substrate; type: biochemical; conditions: for IC50: recombinant hMAO-A
T1 sequence (P21397 1-527): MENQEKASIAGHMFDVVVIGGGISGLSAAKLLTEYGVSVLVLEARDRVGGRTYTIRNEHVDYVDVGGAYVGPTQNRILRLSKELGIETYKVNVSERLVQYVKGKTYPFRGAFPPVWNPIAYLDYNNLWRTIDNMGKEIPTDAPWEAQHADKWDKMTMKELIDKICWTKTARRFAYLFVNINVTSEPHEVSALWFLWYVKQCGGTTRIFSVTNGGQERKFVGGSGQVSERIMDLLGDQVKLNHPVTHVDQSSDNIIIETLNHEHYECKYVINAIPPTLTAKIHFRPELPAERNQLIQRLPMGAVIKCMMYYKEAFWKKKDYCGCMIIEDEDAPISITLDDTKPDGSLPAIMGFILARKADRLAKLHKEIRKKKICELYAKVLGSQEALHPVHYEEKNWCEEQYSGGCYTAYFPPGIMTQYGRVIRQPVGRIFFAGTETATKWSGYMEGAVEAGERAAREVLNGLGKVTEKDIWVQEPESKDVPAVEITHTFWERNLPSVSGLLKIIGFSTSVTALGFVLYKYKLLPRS
Method: The hMAO inhibition assay was performed as previously described. Adequate amounts of recombinant hMAO-A/B were acquired and adjusted to 12.5 µg/mL or 75 µg/mL for hMAO-A or hMAO-B, respectively, with sodium phosphate buffer (50 mM, pH 7.4). The test compounds were dissolved in DMSO as stock solutions (10 mM) and diluted with sodium phosphate buffer (50 mM, pH 7.4) to the corresponding concentrations. Then the test compounds (20 µL) and hMAO (80 µL) were incubated for 15 min at 37 °C in a flat, black-bottomed 96-well microtest plate in the dark. The reaction was initiated by adding Amplex Red reagent (200 µM, final concentration), horseradish peroxidase (2 U/mL, final concentration), and 2 mM p-tyramine for hMAO-A or 2 mM benzylamine (final concetration) for hMAO-B and incubated at 37 °C for 20 min. Activity was quantified in a multi detection microplate fluorescence reader (SpectraMax M5, Molecular Devices, USA) based on the fluorescence generated (excitation, 545 nm; emission, 590 nm). The specific fluorescence emission was calculated after subtraction of the background activity. The background activity was determined from wells containing all components except the hMAO isoforms, which were replaced by a sodium phosphate buffer solution. The percentage inhibition was calculated by the following expression: (1 – IFi/IFc) × 100, in which IFi and IFc are the fluorescence intensities obtained for hMAO in the presence and absence of inhibitors after subtracting the respective background. […]

hMAO-B = molecular target: T2, hMAO-B (Homo sapiens, UniProt P27338); experiment: hMAO inhibition assay (Amplex Red fluorescence), hMAO-B, benzylamine substrate; type: biochemical; conditions: for Selectivity Index (SI): SI = IC50 (hMAO-A)/IC50 (hMAO-B); for IC50: recombinant hMAO-B, read-out: hMAO-B IC50; for inhibition at 1 µM: tested concentration 1 µM; for fold higher inhibitory potency than 4: from IC50, versus compound 4
T2 sequence (P27338 1-520): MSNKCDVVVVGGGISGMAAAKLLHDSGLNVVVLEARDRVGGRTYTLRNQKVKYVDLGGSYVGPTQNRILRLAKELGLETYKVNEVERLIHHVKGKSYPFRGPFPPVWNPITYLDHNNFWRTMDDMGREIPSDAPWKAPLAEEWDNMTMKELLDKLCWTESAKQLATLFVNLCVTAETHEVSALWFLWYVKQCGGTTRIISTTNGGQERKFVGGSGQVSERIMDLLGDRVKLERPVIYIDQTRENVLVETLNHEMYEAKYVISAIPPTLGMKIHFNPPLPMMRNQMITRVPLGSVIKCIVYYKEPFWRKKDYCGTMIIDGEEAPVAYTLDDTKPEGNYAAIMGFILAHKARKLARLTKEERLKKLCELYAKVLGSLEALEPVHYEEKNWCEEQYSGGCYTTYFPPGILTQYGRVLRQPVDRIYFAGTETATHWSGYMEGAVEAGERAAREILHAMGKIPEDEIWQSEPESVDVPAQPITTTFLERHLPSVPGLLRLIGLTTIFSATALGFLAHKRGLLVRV
Method: The hMAO inhibition assay was performed as previously described. […] The test compounds were dissolved in DMSO as stock solutions (10 mM) and diluted with sodium phosphate buffer (50 mM, pH 7.4) to the corresponding concentrations. […] The specific fluorescence emission was calculated after subtraction of the background activity. The background activity was determined from wells containing all components except the hMAO isoforms, which were replaced by a sodium phosphate buffer solution. The percentage inhibition was calculated by the following expression: (1 – IFi/IFc) × 100, in which IFi and IFc are the fluorescence intensities obtained for hMAO in the presence and absence of inhibitors after subtracting the respective background.

SMILES | melting point [°C] | IC50 (hMAO-A) [µM] | Selectivity Index (SI) (hMAO-B) | IC50 (hMAO-B) [µM] | inhibition at 1 µM (hMAO-B) [%] | fold higher inhibitory potency than 4 (hMAO-B) | fold higher hMAO-B inhibition than 1 (hMAO-B; from IC50, versus compound 1) [fold] | inhibition at 0.1 µM (hMAO-A; read-out: hMAO-A % inhibition) [%]
O=C(/C=C/c1ccc2c(c1)OCCO2)c1cc(Br)ccc1O [Compound 24, (E)-1-(5-bromo-2-hydroxyphenyl)-3-(2,3-dihydrobenzo[b][1,4]dioxin-6-yl)prop-2-en-1-one] | 141.8 to 143.7 | > 40 | >160 | 0.25 ± 0.03 | 77.1 |  |  | 
O=C(/C=C/c1ccc2c(c1)OCCO2)c1ccccc1Br [Compound 14, (E)-1-(2-bromophenyl)-3-(2,3-dihydrobenzo[b][1,4]dioxin-6-yl)prop-2-en-1-one] | 70.3 to 72.2 | > 40 | >494 | 0.081 ± 0.004 | 92.6 | 1.8–4.1 fold |  | 
O=C(/C=C/c1ccc2c(c1)OCCO2)c1ccc(O)cc1O [Compound 10, (E)-3-(2,3-dihydrobenzo[b][1,4]dioxin-6-yl)-1–(2,4-dihydroxyphenyl)prop-2-en-1-one] | 169.5 to 170.8 | > 40 |  |  | 69.5 |  |  | 
O=C(/C=C/c1ccc2ccccc2c1)c1ccccc1 [Compound 2, (E)-3-(naphthalen-2-yl)-1-phenylprop-2-en-1-one] |  | > 40 |  |  | 18.1 |  |  | 
COc1ccc(C(=O)/C=C/c2ccc3c(c2)OCCO3)cc1 [Compound 8, (E)-3–(2,3-dihydrobenzo[b][1,4]dioxin-6-yl)-1-(4-methoxyphenyl)prop-2-en-1-one] | 93.8 to 94.9 | > 40 |  |  | 51.7 |  |  | 
O=C(/C=C/c1ccc2c(c1)OCCO2)c1ccc(C(F)(F)F)cc1 [Compound 21, (E)-3-(2,3-dihydrobenzo[b][1,4]dioxin-6-yl)-1-(4-(trifluoromethyl)phenyl)prop-2-en-1-one] | 139 to 140.2 | > 40 | >174 | 0.23 ± 0.0005 | 76.8 |  |  | 
O=C(/C=C/c1ccc2c(c1)OCCO2)c1ccc(Cl)cc1O [Compound 26, (E)-1-(4-chloro-2-hydroxyphenyl)-3-(2,3-dihydrobenzo[b][1,4]dioxin-6-yl)prop-2-en-1-one] | 155.7 to 156.1 | > 40 |  |  | 62.3 |  |  | 
O=C(/C=C/c1ccc2c(c1)OCCO2)c1cccc(O)c1 [Compound 9, (E)-3–(2,3-dihydrobenzo[b][1,4]dioxin-6-yl)-1-(3-hydroxyphenyl)prop-2-en-1-one] | 196.8 to 198.5 | > 40 | >267 | 0.15 ± 0.007 | 86.3 |  |  | 
O=C(/C=C/c1ccc2c(c1)OCO2)c1cccc(Br)c1 [Compound 27, (E)-3-(benzo[d][1,3]dioxol-5-yl)-1–(3-bromophenyl)prop-2-en-1-one] | 111.8 to 112.6 | > 40 | >143 | 0.28 ± 0.002 | 80.4 |  |  | 
COc1ccc(C(=O)/C=C/c2ccc3c(c2)OCCO3)cc1OC [Compound 11, (E)-3–(2,3-dihydrobenzo[b][1,4]dioxin-6-yl)-1–(3,4-dimethoxyphenyl)prop-2-en-1-one] | 110 to 111.1 | > 40 |  |  | 22.4 |  |  | 
O=C(/C=C/c1ccc2c(c1)OCCO2)c1ccccc1 [Compound 4, (E)-3-(2,3-dihydrobenzo[b][1,4]dioxin-6-yl)-1-phenylprop-2-en-1-one] |  | > 40 | >186 |  | 84.9 |  | 55 | 
O=C(/C=C/c1ccc2c(c1)OCCO2)c1cc(Cl)ccc1O [Compound 25, (E)-1-(5-chloro-2-hydroxyphenyl)-3-(2,3-dihydrobenzo[b][1,4]dioxin-6-yl)prop-2-en-1-one] | 136.2 to 137.3 | > 40 | >125 | 0.32 ± 0.05 | 78.4 |  |  | 
O=C(/C=C/c1ccc2c(c1)OCO2)c1ccccc1 [Compound 3, (E)-3-(benzo[d][1,3]dioxol-5-yl)-1-phenylprop-2-en-1-one] |  | > 40 |  |  | 50.8 |  |  | 
O=C(/C=C/c1ccc2c(c1)OCCO2)c1cccc(F)c1 [Compound 15, (E)-3-(2,3-dihydrobenzo[b][1,4]dioxin-6-yl)-1-(3-fluorophenyl)prop-2-en-1-one] |  | > 40 | >308 | 0.13 ± 0.007 | 89.2 | 1.7–4 fold |  | 
C#CCN(C)CCCOc1ccc(Cl)cc1Cl [clorgyline, reference compound] |  |  |  |  |  |  |  | 86.6
O=C(C=Cc1ccccc1)c1ccccc1 [Compound 1, 1,3-diphenyl-2-propen-1-one] |  | > 40 |  | 13.04 ± 0.06 |  |  |  | 
COc1cccc(C(=O)/C=C/c2ccc3c(c2)OCCO3)c1 [Compound 6, (E)-3-(2,3-dihydrobenzo[b][1,4]dioxin-6-yl)-1–(3-methoxyphenyl)prop-2-en-1-one] | 94.4 to 95.6 | > 40 | >118 | 0.34 ± 0.01 | 78 |  |  | 
O=C(/C=C/c1ccc2c(c1)OCCO2)c1ccccc1O [Compound 5, (E)-3-(2,3-dihydrobenzo[b][1,4]dioxin-6-yl)-1-(2-hydroxyphenyl)prop-2-en-1-one] | 120.8 to 122.3 | > 40 | >133 | 0.3 ± 0.02 | 75 |  |  | 
O=C(/C=C/c1ccc2c(c1)OCCO2)c1ccc(Cl)c(Cl)c1 [Compound 23, (E)-1-(3,4-dichlorophenyl)-3–(2,3-dihydrobenzo[b][1,4]dioxin-6-yl)prop-2-en-1-one] | 156.6 to 157.9 | > 40 | >235 | 0.17 ± 0.02 | 88.8 |  |  | 
O=C(/C=C/c1ccc2c(c1)OCCO2)c1ccccc1F [Compound 12, (E)-3–(2,3-dihydrobenzo[b][1,4]dioxin-6-yl)-1-(2-fluorophenyl)prop-2-en-1-one] | 93.7 to 95.4 | > 40 | >333 | 0.12 ± 0.01 | 89.2 | 1.8–4.1 fold |  | 
O=C(/C=C/c1ccc2c(c1)OCO2)c1ccc(Cl)cc1 [Compound 28, (E)-3-(benzo[d][1,3]dioxol-5-yl)-1-(4-chlorophenyl)prop-2-en-1-one] |  | > 40 |  |  | 57.5 |  |  | 
O=C(/C=C/c1ccc2c(c1)OCCO2)c1ccc(Cl)cc1 [Compound 18, (E)-1–(4-chlorophenyl)-3–(2,3-dihydrobenzo[b][1,4]dioxin-6-yl)prop-2-en-1-one] |  | > 40 |  |  | 69.9 |  |  | 
O=C(/C=C/c1ccc2c(c1)OCCO2)c1ccc(O)cc1 [Compound 7, (E)-3–(2,3-dihydrobenzo[b][1,4]dioxin-6-yl)-1-(4-hydroxyphenyl)prop-2-en-1-one] |  | > 40 |  |  | 26 |  |  | 
